We go through 14 compounds from patent US20250145665A1, “MACROCYCLIC PEPTIDES USEFUL AS MODULATORS OF TNF ALPHA” (Bristol-Myers Squibb Company, priority 2023, published 2025).

For orientation: IC50 means the concentration needed to halve the response being measured.

Starred links: 1 amine or outer side, 2 acyl side, 3 side chain; linkers in the order of their positions; H or OH if unused. Positions of bridges follow the written chain, without caps; N, C: chain ends. Non-standard residues stand in square brackets, D forms with d. Residues, ends and D or L forms follow the SMILES beside them. *: point of attachment. Bip(4'-(3-HOOC-benzamido)) = N[C@@H](Cc1ccc(-c2ccc(NC(=O)c3cccc(C(=O)O)c3)cc2)cc1)C(=O)O; X5 = Cn1nc(C(=O)Nc2ccc(-c3ccc(C[C@H](N[*:1])C(=O)[*:2])cc3)cc2)c2ccccc21; Bip(4'-NHBz) = N[C@@H](Cc1ccc(-c2ccc(NC(=O)c3ccccc3)cc2)cc1)C(=O)O; Bip(4'-NH) = O=C([C@H](Cc1ccc(-c2ccc(N[*:3])cc2)cc1)N[*:1])[*:2]; Bip(4'-CONHMe) = CNC(=O)c1ccc(-c2ccc(C[C@H](N)C(=O)O)cc2)cc1; Indazole3carbonyl(1-CH2COOH) = O=C(O)Cn1nc(C(=O)*)c2ccccc21; Bip(4'-COOH) = N[C@@H](Cc1ccc(-c2ccc(C(=O)O)cc2)cc1)C(=O)O; Bip(4'-NHAc) = CC(=O)Nc1ccc(-c2ccc(C[C@H](N)C(=O)O)cc2)cc1; X42 = O=C(O)Cn1cc(C[C@H](NC(=O)c2ccccc2)C(=O)*)c2ccccc21; X4 = N=C(NCCCc1cccc(N)c1)NCCC[C@@H](N[*:1])C(=O)[*:2]; X11 = CC(=O)N[C@@H](Cc1cn(CC(=O)O)c2ccccc12)C(=O)*; X6 = N=C(NCCCCC(N)=O)NCCC[C@@H](N[*:1])C(=O)[*:2]; Ala(morpholin-4-yl) = N[C@@H](CN1CCOCC1)C(=O)O; Phe(3-CONH2) = NC(=O)c1cccc(C[C@H](N)C(=O)O)c1; X41 = N=C(NCCCO)NCCC[C@@H](N[*:1])C(=O)[*:2]; X12 = N=C(NCCO)NCCC[C@@H](N[*:1])C(=O)[*:2]; Bip = N[C@@H](Cc1ccc(-c2ccccc2)cc1)C(=O)O; X67 = O=C(O)c1ccc(-c2cccc(C(=O)*)c2)cc1; X75 = O=C(O)Cn1ccc2c(C(=O)*)cccc21; 2Pal = N[C@@H](Cc1ccccn1)C(=O)O; Tic = O=C(O)[C@@H]1Cc2ccccc2CN1; Cha = N[C@@H](CC1CCCCC1)C(=O)O; Tle = CC(C)(C)[C@H](N)C(=O)O; Sar = CNCC(=O)O

TNFα, sequence (P01375 77-233 limits assumed): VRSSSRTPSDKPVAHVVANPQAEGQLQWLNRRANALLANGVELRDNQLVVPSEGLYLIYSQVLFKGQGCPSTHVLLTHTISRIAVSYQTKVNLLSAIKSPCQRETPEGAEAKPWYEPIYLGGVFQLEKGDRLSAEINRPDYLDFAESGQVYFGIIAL

The first experiment concerns the target TNFα (Homo sapiens, UniProt P01375). Put plainly: TNF-Induced HEK-Blue Assay. The class given is cell-based.
Conditions: not given
In the case of `CC[C@H](C)[C@@H]1NC(=O)[C@@H]2CCCN2C(=O)[C@H]([C@@H](C)CC)NC(=O)[C@@H](CCCNC(=N)N)NC(=O)[C@H](CC(=O)O)NC(=O)[C@H](Cc2ccccn2)NC(=O)CN(C)C(=O)[C@H](Cc2ccc(-c3ccc(NC(=O)[C@H](Cc4cn(CC(=O)O)c5ccccc45)NC(=O)c4ccccc4)cc3)cc2)NC(=O)[C@H](Cc2ccc(-c3ccccc3)cc2)NC(=O)[C@H](C(C)(C)C)NC(=O)CSC[C@@H](C(=O)NCC(N)=O)NC(=O)[C@H](CC(C)C)NC(=O)[C@H](Cc2cccc(C(N)=O)c2)NC1=O` [Example 380] ({CH2CO}-[Tle][Bip][Bip(4'-NH)](X42)[Sar][2Pal]D[dR]IPI[Phe(3-CONH2)]LCG-NH2; thioether N-13), the IC50 was 50 to 200 nM.
On the same count and under the same terms, for `CC(C)C[C@@H]1NC(=O)[C@H](Cc2ccc(O)cc2)NC(=O)[C@H](C(C)C)NC(=O)[C@@H]2Cc3ccccc3CN2C(=O)[C@H](C(C)C)NC(=O)[C@@H](CCCNC(=N)N)NC(=O)[C@H](CC(=O)O)NC(=O)[C@@H]2CCCN2C(=O)CN(C)C(=O)[C@H](Cc2ccc(-c3ccc(NC(=O)c4ccccc4)cc3)cc2)NC(=O)[C@H](Cc2ccc(-c3ccc(C(=O)O)cc3)cc2)NC(=O)[C@H](CC2CCCCC2)NC(=O)CSC[C@@H](C(=O)NCC(N)=O)NC1=O` [Example 383] ({CH2CO}-[Cha][Bip(4'-COOH)][Bip(4'-NHBz)][Sar]PD[dR]V[Tic]VYLCG-NH2; thioether N-13) the value was 50 to 200 nM; for `CC(C)C[C@@H]1NC(=O)[C@H](CCCNC(=N)N)NC(=O)[C@H](C(C)C)NC(=O)[C@@H]2CCCN2C(=O)[C@H](C(C)C)NC(=O)[C@@H](CCCNC(=N)NCCO)NC(=O)[C@H](CC(=O)O)NC(=O)[C@@H]2CCCN2C(=O)CN(C)C(=O)[C@H](Cc2ccc(-c3ccc(NC(=O)c4nn(CC(=O)O)c5ccccc45)cc3)cc2)NC(=O)[C@H](Cc2ccc(-c3ccccc3)cc2)NC(=O)[C@H](CN2CCOCC2)NC(=O)CSC[C@@H](C(=O)NCC(N)=O)NC1=O` [Example 387] ({CH2CO}-[Ala(morpholin-4-yl)][Bip][Bip(4'-NH)](Indazole3carbonyl(1-CH2COOH))[Sar]PD[X12]VPVRLCG-NH2; thioether N-13), below 50 nM.
Regarding `CC(C)C[C@@H]1NC(=O)[C@H](CCCNC(=N)N)NC(=O)[C@H](C(C)C)NC(=O)[C@@H]2CCCN2C(=O)[C@H](C(C)C)NC(=O)[C@@H](CCCNC(=N)NCCCO)NC(=O)[C@H](CC(=O)O)NC(=O)[C@@H]2CCCN2C(=O)CN(C)C(=O)[C@H](Cc2ccc(-c3ccc(NC(=O)c4nn(CC(=O)O)c5ccccc45)cc3)cc2)NC(=O)[C@H](Cc2ccc(-c3ccccc3)cc2)NC(=O)[C@H](CN2CCOCC2)NC(=O)CSC[C@@H](C(=O)NCC(N)=O)NC1=O` [Example 389] ({CH2CO}-[Ala(morpholin-4-yl)][Bip][Bip(4'-NH)](Indazole3carbonyl(1-CH2COOH))[Sar]PD[X41]VPVRLCG-NH2; thioether N-13), the IC50 is below 50 nM.
On the same count and under the same terms, for `CC(C)C[C@@H]1NC(=O)[C@H](CCCNC(=N)N)NC(=O)[C@H](C(C)C)NC(=O)[C@@H]2CCCN2C(=O)[C@H](C(C)C)NC(=O)[C@@H](CCCNC(=N)NCCCCC(N)=O)NC(=O)[C@H](CC(=O)O)NC(=O)[C@@H]2CCCN2C(=O)CN(C)C(=O)[C@H](Cc2ccc(-c3ccc(NC(=O)c4nn(CC(=O)O)c5ccccc45)cc3)cc2)NC(=O)[C@H](Cc2ccc(-c3ccccc3)cc2)NC(=O)[C@H](CN2CCOCC2)NC(=O)CSC[C@@H](C(=O)NCC(N)=O)NC1=O` [Example 391] ({CH2CO}-[Ala(morpholin-4-yl)][Bip][Bip(4'-NH)](Indazole3carbonyl(1-CH2COOH))[Sar]PD[X6]VPVRLCG-NH2; thioether N-13) the value was 50 to 200 nM; for `CC(C)C[C@@H]1NC(=O)[C@H](CCCNC(=N)N)NC(=O)[C@H](C(C)C)NC(=O)[C@@H]2CCCN2C(=O)[C@H](C(C)C)NC(=O)[C@@H](CCCNC(=N)NCCCc2cccc(N)c2)NC(=O)[C@H](CC(=O)O)NC(=O)[C@@H]2CCCN2C(=O)CN(C)C(=O)[C@H](Cc2ccc(-c3ccc(NC(=O)c4nn(CC(=O)O)c5ccccc45)cc3)cc2)NC(=O)[C@H](Cc2ccc(-c3ccccc3)cc2)NC(=O)[C@H](CN2CCOCC2)NC(=O)CSC[C@@H](C(=O)NCC(N)=O)NC1=O` [Example 393] ({CH2CO}-[Ala(morpholin-4-yl)][Bip][Bip(4'-NH)](Indazole3carbonyl(1-CH2COOH))[Sar]PD[X4]VPVRLCG-NH2; thioether N-13), below 50 nM.

The same experiment, now with this note: HEK-Blue-CD40L cells, NF-kB-driven secreted alkaline phosphatase reporter; TNFα 0.5 ng/ml; 18 h; read-out: TNF induced HEK-Blue assay IC50 value.
In the case of `CC[C@H](C)[C@@H]1NC(=O)[C@@H]2CCCN2C(=O)[C@H]([C@@H](C)CC)NC(=O)[C@@H](CCCNC(=N)N)NC(=O)[C@H](CC(=O)O)NC(=O)[C@H](Cc2ccccn2)NC(=O)CN(C)C(=O)[C@H](Cc2ccc(-c3ccc(NC(=O)[C@H](Cc4cn(CC(=O)O)c5ccccc45)NC(C)=O)cc3)cc2)NC(=O)[C@H](Cc2ccc(-c3ccccc3)cc2)NC(=O)[C@H](C(C)(C)C)NC(=O)CSC[C@@H](C(=O)NCC(N)=O)NC(=O)[C@H](CC(C)C)NC(=O)[C@H](Cc2cccc(C(N)=O)c2)NC1=O` [Example 379] ({CH2CO}-[Tle][Bip][Bip(4'-NH)](X11)[Sar][2Pal]D[dR]IPI[Phe(3-CONH2)]LCG-NH2; thioether N-13), the concentration for half-maximal inhibition (IC50) lay in the range of 50 to 200 nM.
With `CC(C)C[C@@H]1NC(=O)[C@H](Cc2ccc(O)cc2)NC(=O)[C@H](C(C)C)NC(=O)[C@@H]2Cc3ccccc3CN2C(=O)[C@H](C(C)C)NC(=O)[C@@H](CCCNC(=N)N)NC(=O)[C@H](CC(=O)O)NC(=O)[C@@H]2CCCN2C(=O)CN(C)C(=O)[C@H](Cc2ccc(-c3ccc(NC(=O)c4cccc(-c5ccc(C(=O)O)cc5)c4)cc3)cc2)NC(=O)[C@H](Cc2ccc(-c3ccc(C(=O)O)cc3)cc2)NC(=O)[C@H](CC2CCCCC2)NC(=O)CSC[C@@H](C(=O)NCC(N)=O)NC1=O` [Example 381] ({CH2CO}-[Cha][Bip(4'-COOH)][Bip(4'-NH)](X67)[Sar]PD[dR]V[Tic]VYLCG-NH2; thioether N-13), the IC50 was 50 to 200 nM.
On the same count and under the same terms, for `CC(C)C[C@@H]1NC(=O)[C@H](CCCNC(=N)N)NC(=O)[C@H](C(C)C)NC(=O)[C@@H]2CCCN2C(=O)[C@H](C(C)C)NC(=O)[C@@H](CCCNC(=N)N)NC(=O)[C@H](CC(=O)O)NC(=O)[C@@H]2CCCN2C(=O)CN(C)C(=O)[C@H](Cc2ccc(-c3ccc(NC(=O)c4cccc5c4ccn5CC(=O)O)cc3)cc2)NC(=O)[C@H](Cc2ccc(-c3ccccc3)cc2)NC(=O)[C@H](CN2CCOCC2)NC(=O)CSC[C@@H](C(=O)NCC(N)=O)NC1=O` [Example 382] ({CH2CO}-[Ala(morpholin-4-yl)][Bip][Bip(4'-NH)](X75)[Sar]PD[dR]VPVRLCG-NH2; thioether N-13) the value was below 50 nM; for `CC(C)C[C@@H]1NC(=O)[C@H](Cc2ccc(O)cc2)NC(=O)[C@H](C(C)C)NC(=O)[C@@H]2Cc3ccccc3CN2C(=O)[C@H](C(C)C)NC(=O)[C@@H](CCCNC(=N)N)NC(=O)[C@H](CC(=O)O)NC(=O)[C@@H]2CCCN2C(=O)CN(C)C(=O)[C@H](Cc2ccc(-c3ccc(NC(=O)c4cccc(C(=O)O)c4)cc3)cc2)NC(=O)[C@H](Cc2ccc(-c3ccc(C(=O)O)cc3)cc2)NC(=O)[C@H](CC2CCCCC2)NC(=O)CSC[C@@H](C(=O)NCC(N)=O)NC1=O` [Example 384] ({CH2CO}-[Cha][Bip(4'-COOH)][Bip(4'-(3-HOOC-benzamido))][Sar]PD[dR]V[Tic]VYLCG-NH2; thioether N-13), 50 to 200 nM; for `CC[C@H](C)[C@@H]1NC(=O)[C@@H]2CCCN2C(=O)[C@H]([C@@H](C)CC)NC(=O)[C@@H](CCCNC(=N)N)NC(=O)[C@H](CC(=O)O)NC(=O)[C@H](Cc2ccccc2)NC(=O)CN(C)C(=O)[C@H](Cc2ccc(-c3ccc(NC(C)=O)cc3)cc2)NC(=O)[C@H](Cc2ccc(-c3ccc(C(=O)NC)cc3)cc2)NC(=O)[C@H](C(C)(C)C)NC(=O)CSC[C@@H](C(=O)NCC(N)=O)NC(=O)[C@H](CC(C)C)NC(=O)[C@H](Cc2cnc[nH]2)NC1=O` [Example 385] ({CH2CO}-[Tle][Bip(4'-CONHMe)][Bip(4'-NHAc)][Sar]FD[dR]IPIHLCG-NH2; thioether N-13), below 50 nM.
The same measure, in the same setting: the result for `CNC(=O)c1ccc(-c2ccc(C[C@@H]3NC(=O)[C@H](CC4CCCCC4)NC(=O)CSC[C@@H](C(=O)NCC(N)=O)NC(=O)[C@H](CC(C)C)NC(=O)[C@H](Cc4ccc(O)cc4)NC(=O)[C@H](C(C)C)NC(=O)[C@@H]4Cc5ccccc5CN4C(=O)[C@H](C(C)C)NC(=O)[C@@H](CCCNC(=N)N)NC(=O)[C@H](CC(=O)O)NC(=O)[C@@H]4CCCN4C(=O)CN(C)C(=O)[C@H](Cc4ccc(-c5ccc(NC(C)=O)cc5)cc4)NC3=O)cc2)cc1` [Example 386] ({CH2CO}-[Cha][Bip(4'-CONHMe)][Bip(4'-NHAc)][Sar]PD[dR]V[Tic]VYLCG-NH2; thioether N-13) reads 50 to 200 nM; that for `CC(C)C[C@@H]1NC(=O)[C@H](CCCNC(=N)N)NC(=O)[C@H](C(C)C)NC(=O)[C@@H]2CCCN2C(=O)[C@H](C(C)C)NC(=O)[C@@H](CCCNC(=N)NCCO)NC(=O)[C@H](CC(=O)O)NC(=O)[C@@H]2CCCN2C(=O)CN(C)C(=O)[C@H](Cc2ccc(-c3ccc(NC(=O)c4nn(C)c5ccccc45)cc3)cc2)NC(=O)[C@H](Cc2ccc(-c3ccccc3)cc2)NC(=O)[C@H](CN2CCOCC2)NC(=O)CSC[C@@H](C(=O)NCC(N)=O)NC1=O` [Example 388] ({CH2CO}-[Ala(morpholin-4-yl)][Bip][X5][Sar]PD[X12]VPVRLCG-NH2; thioether N-13), below 50 nM.
Take `CC(C)C[C@@H]1NC(=O)[C@H](CCCNC(=N)N)NC(=O)[C@H](C(C)C)NC(=O)[C@@H]2CCCN2C(=O)[C@H](C(C)C)NC(=O)[C@@H](CCCNC(=N)NCCCCC(N)=O)NC(=O)[C@H](CC(=O)O)NC(=O)[C@@H]2CCCN2C(=O)CN(C)C(=O)[C@H](Cc2ccc(-c3ccc(NC(=O)c4nn(C)c5ccccc45)cc3)cc2)NC(=O)[C@H](Cc2ccc(-c3ccccc3)cc2)NC(=O)[C@H](CN2CCOCC2)NC(=O)CSC[C@@H](C(=O)NCC(N)=O)NC1=O` [Example 392] ({CH2CO}-[Ala(morpholin-4-yl)][Bip][X5][Sar]PD[X6]VPVRLCG-NH2; thioether N-13): the IC50 was 50 to 200 nM.
